Measured values: PMC7253423, “Quassinoid analogs with enhanced efficacy for treatment of hematologic malignancies target the PI3Kγ isoform” (Communications Biology, 2020)
Several values for one entry are separate records, joined by “and”; a condition that tells them apart may be missing. Identical values can stand only once.

Assays:
[1] = In vivo toxicity test, survival rate; design: species or system NOD/SCID mice
Method: The survival rate was recorded to monitor the tolerance of the compounds in these mice.

[2] = tested on: MOLM14 cells; test: Cell viability assay (CellTiter-Glo luminescence); format: cell-based; details: Homo sapiens
Method: (§1) 5000 cells as indicated were cultured in 96-well plate with 100 μl of media. […] After treatment, the cells were incubated with 100 μl buffer for 10 min at room temperature following the instructions of CellTiter-Glo kit (Promega, Madison, WI). Luminescence was detected using a multi-mode reader Cytation 5 (BioTek, Winooski, VT). […] Two independent experiments done in duplicates were performed.

[3] = tested on: SU-DHL-4 cells; test: Cell viability assay (CellTiter-Glo luminescence); format: cell-based, human; details: Homo sapiens, SU-DHL-4, 144 h
Method: as §1

[4] = tested on: Raji cells; test: Cell viability assay (CellTiter-Glo luminescence); format: cell-based, human; details: Homo sapiens; for IC50: analogs, 72 h, Fig. 5c, read-out: IC50
Method: as §1

[5] = Cytotoxicity, cell viability assay in normal cells; format: cell-based; details: human, replicates
Source text: (§2) Human peripheral blood mononuclear cells (PBMCs), normal T-cells and B-cells were provided by the University of Pennsylvania Human Immunology Core (HIC), and Patient-derived xenografts (PDXs) were obtained from Fox Chase Cancer Center (FCCC). These samples were from different unidentified and healthy donors with written, informed consent. All the procedures were approved by the Institutional Review Board (IRB) and conducted according to the declarations of Helsinki protocols.
as §1

[6] = tested on: MOLM14 xenografts; test: mRNA expression in xenograft tumors in vivo; design: species or system NOD/SCID mice; details: xenograft tumors of treated mice
Method: Real-time PCR experiments were performed as previously described. The experiments were performed in triplicate.
(§3) Six-week-old male NOD.CB17-Prkdc^scid/J (NOD/SCID) mice (Jackson Labs, Bar Harbor, ME, USA) were used as the human-in-mouse xeno-transplantation model. MOLM14 cells (1 × 10^7 cells) were injected into the subcutaneous space on the left flank of the mice. […] Body weight and tumor size were monitored before every injection. After treatment for 2 weeks, the mice were euthanized by CO2 inhalation and the tumors were carefully excised. The tumor volume (mm^3) was measured and calculated using the formula (a × b × b)/2 (a, the largest diameter of two measurements; b, the smallest diameter of two measurements).

[7] = tested on: hematologic malignancies derived cell lines; test: Cell viability assay, panel of hematologic malignancy derived cell lines; format: cell-based, human; details: 100 nM, 72 h, lymphoma, leukemia and multiple myeloma cell lines (13 cell lines for analogs)
Method: 5000 cells as indicated were cultured in 96-well plate with 100 μl of media. On the next day, Brusatol or associated analogs were added once to the cells without media change. After treatment, the cells were incubated with 100 μl buffer for 10 min at room temperature following the instructions of CellTiter-Glo kit (Promega, Madison, WI). Luminescence was detected using a multi-mode reader Cytation 5 (BioTek, Winooski, VT). […] Two independent experiments done in duplicates were performed.

[8] = tested on: Raji cells; test: Western blot of PI3K/AKT signaling proteins; format: cell-based, human; details: Raji, 0, 50 nM, 100 nM; 0, 12 h, 24 h
Method: Western blot analyses were performed as previously described. Briefly, total cell lysates were separated by SDS-PAGE gel and transferred to nitrocellulose membrane. The membranes were blocked with 5% non-fat milk, probed with specific antibodies, and visualized using the Odyssey scanner (LiCor Inc., Lincoln, NE).

[9] = Cytotoxicity, cell viability assay in normal cells; format: cell-based, human; details: human, relative cell viability (Fig 6a), replicates
Source text: as §2, §1

[10] = tested on: MOLM14 xenografts; test: In vivo tumorigenic assay using xenografts, tumor size; design: species or system NOD/SCID mice; key to tumor size (Fig 5d&5e), individual mice: tumor volume in mm^3, calculated as (a × b × b)/2; details: for tumor size (Fig 5d&5e), individual mice: MOLM14 xenograft
Method: as §3

[11] = Body weight of xenograft mice; format: in vivo, NOD/SCID mice; details: individual mice, Fig S3i, in g (unit assumed)
Method: as §3

[12] = tested on: PBMC; test: Cytotoxicity, cell viability assay in normal cells; format: cell-based, human; details: Fig 5c
Source text: as §2, §1

[13] = relative cell viability (Fig 6b)
[14] = relative cell viability (Fig 6c)

For `COC(=O)C12OCC34C(CC5C(C)=C(OC(=O)CC(C)N)C(=O)CC5(C)C3C(O)C1O)OC(=O)C(OC(=O)C=C(C)C)C24` (stereo not drawn) [#26], the “toxicity in vivo (survival)” value ([1]; 10 mg/kg intraperitoneally every other day, monitored 24 days, 4 mice per group) was “did not show any obvious signs of toxicity”, the “survival event status per mouse (Fig 6i; 1 = event/death, 0 = censored)” value ([1]; 10mg/kg, Days Post-treatment 24) was 0 and the viability at 0.0390625 µM ([2]; MOLM-14, read-out: relative cell viability (Fig 6e), replicates, MOLM14, Con. 0.0390625 μM, fraction of 0 μM control) was 12.5%. The viability at 0.15625 µM ([2]; MOLM-14, read-out: relative cell viability (Fig 6e), replicates, MOLM14, Con. 0.15625 μM, fraction of 0 μM control) was 7.37%, the viability at 0.625 µM ([2]; MOLM-14, read-out: relative cell viability (Fig 6e), replicates, MOLM14, Con. 0.625 μM, fraction of 0 μM control) was 5.55% and the viability at 10 µM ([2]; MOLM-14, read-out: relative cell viability (Fig 6e), replicates, MOLM14, Con. 10 μM, fraction of 0 μM control) was 4.05%. The viability at 0.00244141 µM ([3]; read-out: relative cell viability (Fig 6d), replicates, SU-DHL-4, Con. 0.00244141 μM, fraction of 0 μM control) was 125%, the viability at 0.0390625 µM ([3]; read-out: relative cell viability (Fig 6d), replicates, SU-DHL-4, Con. 0.0390625 μM, fraction of 0 μM control) was 36.6% and the viability at 0.15625 µM ([3]; read-out: relative cell viability (Fig 6d), replicates, SU-DHL-4, Con. 0.15625 μM, fraction of 0 μM control) was 18.6%. It also gave a viability at 0.625 µM ([3]; read-out: relative cell viability (Fig 6d), replicates, SU-DHL-4, Con. 0.625 μM, fraction of 0 μM control) of 9.14%, a viability at 10 µM ([3]; read-out: relative cell viability (Fig 6d), replicates, SU-DHL-4, Con. 10 μM, fraction of 0 μM control) of 6.62% and an IC50 [4] of 0.0376 µM. The viability at 0.00244141 µM ([4]; read-out: relative cell viability (Fig 6f), replicates, Raji, Con. 0.00244141 μM, fraction of 0 μM control) was 105%, the viability at 0.0390625 µM ([4]; read-out: relative cell viability (Fig 6f), replicates, Raji, Con. 0.0390625 μM, fraction of 0 μM control) was 35% and the viability at 0.15625 µM ([4]; read-out: relative cell viability (Fig 6f), replicates, Raji, Con. 0.15625 μM, fraction of 0 μM control) was 16.4%. The viability at 0.625 µM ([4]; read-out: relative cell viability (Fig 6f), replicates, Raji, Con. 0.625 μM, fraction of 0 μM control) was 7.06%, the viability at 10 µM ([4]; read-out: relative cell viability (Fig 6f), replicates, Raji, Con. 10 μM, fraction of 0 μM control) was 4.98% and the viability at 0.000244141 μM [5, 13] was 96.2%. It also gave a viability at 0.00390625 μM [5, 13] of 86%, a viability at 0.015625 μM [5, 13] of 81.6% and a viability at 0.0625 μM [5, 13] of 74.5%. The viability at 1 μM [5, 13] was 82.6%, the viability at 0.000244141 μM [5, 14] was 111% and the viability at 0.00390625 μM [5, 14] was 112%. For the same compound, the viability at 0.015625 μM [5, 14] was 115%, the viability at 1 μM [5, 14] was 93.8% and the “PIK3CG and GSK3B mRNA expression in vivo” value [6] was “inhibited”. The “inhibition of cell viability in panel of cell lines” value [7] was “significantly inhibit”, the “suppression of AKT1, GSK3, and mTOR levels” value [8] was “largely similar to Brusatol” and the viability at 0.000244141 μM [9] was 103%. For the same compound, the viability at 0.00390625 μM [9] was 85%, the viability at 0.015625 μM [9] was 83.1% and the viability at 0.0625 μM [9] was 80.7%. For the same compound, the viability at 1 μM [9] was 61.8%, the “tumor size, inhibitory response” value ([10]; 2 mg/kg intraperitoneally three times per week, 2 weeks, vs PBS control) was “strong and rapid inhibitory response” and the “tumor size (Fig 5d&5e), individual mice” value ([10]; 0d) was 50.8503 and 81.4689 and 79.571 and 83.4481 and 51.3256 and 101.436. For the same compound, the “tumor size (Fig 5d&5e), individual mice” value ([10]; 2d) was 106.443 and 103.871 and 87.5139 and 68.1449 and 136.175 and 126.294, the “tumor size (Fig 5d&5e), individual mice” value ([10]; 4d) was 67.7106 and 172.977 and 64.3385 and 73.9417 and 166.255 and 100.157 and the “tumor size (Fig 5d&5e), individual mice” value ([10]; 6d) was 174.013 and 301.003 and 181.944 and 99.2269 and 96.1716 and 48.5716. For the same compound, the “tumor size (Fig 5d&5e), individual mice” value ([10]; 8d) was 185.825 and 124.577 and 101.125 and 181.307 and 468.229 and 312.088, the “tumor size (Fig 5d&5e), individual mice” value ([10]; 10d) was 259.199 and 230.595 and 161.819 and 478.339 and 646.864 and 395.944 and the “tumor size (Fig 5d&5e), individual mice” value ([10]; 12d) was 359.944 and 415.708 and 136.428 and 853.399 and 887.802 and 629.337.
For `COC(=O)C12OCC34C(CC5C(C)=C(OC(=O)C6CCCN6)C(=O)CC5(C)C3C(O)C1O)OC(=O)C(OC(=O)C=C(C)C)C24` (stereo not drawn) [#31], the IC50 [4] was 0.0365 µM, the Body weight ([11]; 0d) was 25.68 and 24.55 and 25.16 and 23.48 and the Body weight ([11]; 2d) was 27.27 and 26.58 and 25.38 and 25.93 and 25.43 and 23.7. The Body weight ([11]; 4d) was 26.97 and 26.67 and 25.81 and 25.44 and 25.69, the Body weight ([11]; 6d) was 27.97 and 26.96 and 26.09 and the Body weight ([11]; 8d) was 28.38 and 27.82 and 26.73 and 25.66. The Body weight ([11]; 10d) was 28.24 and 27.47 and 25.9 and 26.82 and 26.06, the Body weight ([11]; 12d) was 29.56 and 29.11 and 26.31 and 27.31 and the “inhibition of cell viability in panel of cell lines” value [7] was “significantly inhibit”. The “Cell viability, raw luminescence reading” value ([12]; Con. 0.01 μM) was 21395 and 22004, the “Cell viability, raw luminescence reading” value ([12]; Con. 0.039 μM) was 12976 and 10747 and the “Cell viability, raw luminescence reading” value ([12]; Con. 0.156 μM) was 7357 and 6947. The “Cell viability, raw luminescence reading” value ([12]; Con. 0.625 μM) was 8946 and 8046, the “Cell viability, raw luminescence reading” value ([12]; Con. 10 μM) was 8102 and 7279 and the “tumor size (Fig 5d&5e), individual mice” value ([10]; 0d) was 74.2529 and 62.0281 and 101.973 and 60.5009 and 91.8956 and 82.6996. For the same compound, the “tumor size (Fig 5d&5e), individual mice” value ([10]; 2d) was 107.191 and 120.034 and 71.2216 and 100.836 and 98.4479 and 88.2667, the “tumor size (Fig 5d&5e), individual mice” value ([10]; 4d) was 99.5578 and 195.79 and 71.7513 and 67.0262 and 52.5262 and 97.4505 and the “tumor size (Fig 5d&5e), individual mice” value ([10]; 6d) was 95.2698 and 78.8527 and 143.077 and 70.9567 and 158.17 and 228.179. For the same compound, the “tumor size (Fig 5d&5e), individual mice” value ([10]; 8d) was 324.747 and 668.944 and 318.873 and 96.919 and 128.11 and 346.937, the “tumor size (Fig 5d&5e), individual mice” value ([10]; 10d) was 458.137 and 927.585 and 502.969 and 200.67 and 236.721 and 666.334 and the “tumor size (Fig 5d&5e), individual mice” value ([10]; 12d) was 959.947 and 1557.75 and 485.372 and 249.92 and 359.5 and 1074.17.
